# According to patent US11827690B2, “ApoC-II mimetic peptides” (THE UNITED STATES OF AMERICA, as represented by the …, priority 2017, dated 2023):
# Tests used:
# [1] = target: T1, bovine LPL (Bos taurus, UniProt P11151); test: in vitro LPL assay using apoC-II deficient patient sera as substrate; type: biochemical
# T1 sequence (P11151 29-478): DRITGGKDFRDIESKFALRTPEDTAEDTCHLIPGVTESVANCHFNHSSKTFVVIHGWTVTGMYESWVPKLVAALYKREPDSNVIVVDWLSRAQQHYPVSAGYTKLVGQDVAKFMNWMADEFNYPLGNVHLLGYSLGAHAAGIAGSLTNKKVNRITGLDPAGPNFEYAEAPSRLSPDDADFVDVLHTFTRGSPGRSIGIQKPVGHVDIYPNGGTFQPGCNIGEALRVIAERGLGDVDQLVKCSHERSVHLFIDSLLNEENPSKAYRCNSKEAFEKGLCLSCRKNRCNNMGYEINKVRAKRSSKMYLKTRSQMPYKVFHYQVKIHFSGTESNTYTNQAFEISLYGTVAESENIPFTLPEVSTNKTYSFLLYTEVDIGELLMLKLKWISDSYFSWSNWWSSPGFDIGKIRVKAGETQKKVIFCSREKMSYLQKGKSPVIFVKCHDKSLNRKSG
# Procedure, shortened: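 Bovine LPL incubated with peptide and substrate (3 mg/dL TG Intralipid or 1:100-diluted apoC-II-deficient human serum) in PBS with BSA, 30 min on ice then 1 h at 37° C. Released free fatty acids quantified by colorimetric NEFA assay (absorbance 550 and 660 nm) against an oleic acid standard.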
# [2] = system: apoC-II knockout mice; test: plasma lipids of apoC-II knockout mice after peptide injection; type: in vivo
# [3] = system: apoC-III transgenic mice; test: serum TG of apoC-III transgenic mice after Intralipid injection; type: in vivo; conditions: peptide IP 1 hour after Intralipid, 5 and 10 μmole/kg, FIG. 39
# Procedure: C57Bl/6 mice (wild-type), apoC-II knockout (apoC-II KO) mice, and apoC-III transgenic mice were used for in vivo study. The C57Bl/6 mice (wild-type) were purchased from Taconic Biosciences Inc. The apoC-II KO mice were created as described in Sakurai et al., J Pharmacol Exp Ther 356:341-353, 2016. The apoC-III transgenic mice were generated by overexpressing human apoC-III in C57Bl/6 mice. See Qu et al., J. Lipid Res. 48:1476-1487, 2007.
# Mice were fasted overnight (approximately 12 hours) before the study and 6 hours during the study, the next day. The apoC-II mimetic peptides were synthetically produced and free of biological contamination (not available as FDA approved compounds/treatment). Peptides were produced and used in sterile conditions and filtered by 0.2 nm filter before injections in a single dose 1-10 μmol/kg body weight (B. W.) administered either subcutaneous injection (S.Q. or S.C.), intraperitoneal injection (I.P.) or intravenous injection (I.V.) (in a sterile, pharmaceutical grade PBS solution at a volume ≤200 μL) as described in Sakurai et al., J Pharmacol Exp Ther 356:341-353, 2016. […]
# [4] = SEC-FPLC, 1 μmole/kg, 6 hours after injection, FIG. 41
sequence,measurement,setting,value
DYLKEVFEKLRDLYEKFTPAVSTYTGIFTDQVLSVLKGEE [Delta6PV],LPL activation compared with full length apoC-II protein,"[1]; 10 pM to 10 μM, FIG. 51",activated LPL in vitro more efficiently than the full length apoC-II protein
same,LPL activation / TG hydrolysis,[1]; FIG. 52,activated LPL in vitro
same,time of maximum reduction of plasma TG,"[2]; 0.1 μmol/kg intraperitoneally, after the peptide injection",about 6 hours
same,plasma TG,"[2]; 0.1 μmol/kg of body weight intraperitoneally, FIG. 53",rapid reduction of plasma TG
same,level of HDL as measured by the phospholipid level,[2]; [4],increased
same,level of VLDL as measured by the phospholipid level,[2]; [4],decreased
same,level of TG in the VLDL pool,"[2]; SEC-FPLC, 1 μmole/kg, FIG. 42",decreased
same,plasma TG,[2]; intraperitoneal injection,rapid and marked reduction of plasma TG
same,plasma TG,"[2]; repeat IP injection at 24 h intervals for 6 days, 0.25 and 1 μmole/kg, FIG. 40",marked and lasting reduction of plasma TG
same,plasma TG,[2]; subcutaneous injection,rapid and marked reduction of plasma TG
same,serum TG increase after Intralipid injection,[3],the TG increase was significantly reduced
